From PubChem BioAssay AID2060607 (Molecular Pharmacology Branch, DTP, NCI, 2025)

Tested on: 876862-298-R-J1-PDC complex spheroids, viability % test/control
Test: Anticancer human tumor 876862-298-R-J1-PDC patient-derived endometrial carcinoma cell line growth inhibition [CLK]
Conditions: for IC50: curve of first compound; for viability, T/C: stronger effect = lower value
Procedure, shortened: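 Patient-derived tumor cells grown as complex spheroids with HUVEC endothelial cells and mesenchymal stem cells, treated with drug combinations. Concentrations descend in half-log steps from near clinical Cmax, or from 10 microM if Cmax unknown.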
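Note: spheroids exposed to drugs for 7 days before readout.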
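Throughout, for viability, T/C: 100% = DMSO vehicle control wells.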

C=CC(=O)Nc1cc(Nc2nccc(-c3cn(C)c4ccccc34)n2)c(OC)cc1N(C)CCN(C)C + CN1CCN(c2cc(C(=O)Nc3cc4cc(-c5cnn(C)c5)ccc4cn3)ccn2)CC1
IC50 (second compound 0.0316 µM): 262 nM | IC50 (second compound 0.1 µM): < 0.949 nM | IC50 (second compound 0.316 µM): < 0.949 nM | IC50 (second compound 1 µM): < 0.949 nM | IC50 (second compound 3.16 µM): < 0.949 nM | IC50 (second compound 10 µM): < 0.949 nM | viability, T/C (second compound 0.0316 µM, first compound 0.000949 µM): 90% | viability, T/C (second compound 0.0316 µM, first compound 0.003 µM): 92.8% | viability, T/C (second compound 0.0316 µM, first compound 0.00949 µM): 90% | viability, T/C (second compound 0.0316 µM, first compound 0.03 µM): 82.7% | viability, T/C (second compound 0.0316 µM, first compound 0.0949 µM): 67.6% | viability, T/C (second compound 0.0316 µM, first compound 0.3 µM): 47.6% | viability, T/C (second compound 0.1 µM, first compound 0.000949 µM): 51.6% | viability, T/C (second compound 0.1 µM, first compound 0.003 µM): 45.1% | viability, T/C (second compound 0.1 µM, first compound 0.00949 µM): 43.7% | viability, T/C (second compound 0.1 µM, first compound 0.03 µM): 48.8% | viability, T/C (second compound 0.1 µM, first compound 0.0949 µM): 43.3% | viability, T/C (second compound 0.1 µM, first compound 0.3 µM): 30.7% | viability, T/C (second compound 0.316 µM, first compound 0.000949 µM): 3.41% | viability, T/C (second compound 0.316 µM, first compound 0.003 µM): 4.12% | viability, T/C (second compound 0.316 µM, first compound 0.00949 µM): 3.52% | viability, T/C (second compound 0.316 µM, first compound 0.03 µM): 4.04% | viability, T/C (second compound 0.316 µM, first compound 0.0949 µM): 4.57% | viability, T/C (second compound 0.316 µM, first compound 0.3 µM): 3.03% | viability, T/C (second compound 1 µM, first compound 0.000949 µM): 0.75% | viability, T/C (second compound 1 µM, first compound 0.003 µM): 1.64% | viability, T/C (second compound 1 µM, first compound 0.00949 µM): 2.15% | viability, T/C (second compound 1 µM, first compound 0.03 µM): 1.03% | viability, T/C (second compound 1 µM, first compound 0.0949 µM): 0.6% | viability, T/C (second compound 1 µM, first compound 0.3 µM): 2.34% | viability, T/C (second compound 3.16 µM, first compound 0.000949 µM): 1.02% | viability, T/C (second compound 3.16 µM, first compound 0.003 µM): 1.18% | viability, T/C (second compound 3.16 µM, first compound 0.00949 µM): 1.66% | viability, T/C (second compound 3.16 µM, first compound 0.03 µM): 1.01% | viability, T/C (second compound 3.16 µM, first compound 0.0949 µM): 1.3% | viability, T/C (second compound 3.16 µM, first compound 0.3 µM): 1.16% | viability, T/C (second compound 10 µM, first compound 0.000949 µM): 0.77% | viability, T/C (second compound 10 µM, first compound 0.003 µM): 2.03% | viability, T/C (second compound 10 µM, first compound 0.00949 µM): 2.52% | viability, T/C (second compound 10 µM, first compound 0.03 µM): 1.87% | viability, T/C (second compound 10 µM, first compound 0.0949 µM): 2.21% | viability, T/C (second compound 10 µM, first compound 0.3 µM): 1.88%
